Values quoted from earlier work, collected in patent EP2637695B1, “OLMESARTAN FORMULATIONS” (Abdi Ibrahim Ilac Sanayi ve Ticaret Anonim Sirketi, priority 2010, dated 2012).
Where two headings read alike, the source gives them in different places.

Experiments:
[1] = in humans

- solubility (in 17 hydrochloric acid): insoluble
- solubility (in strong acid): sparingly soluble
- solubility (in strong base): soluble
- solubility (in water and in the pH range of 3 to 9): practically insoluble
- bioavailability (BA) [1]: approximately 26%
SMILES: CCCc1nc(C(C)(C)O)c(C(=O)OCc2oc(=O)oc2C)n1Cc1ccc(-c2ccccc2-c2nnn[nH]2)cc1 [Olmesartan medoxomil, (5-methyl-2-oxo-1,3-dioxolen-4-yl)rnethyl 4-(1-hydroxy-1-methylethyl)-2-propyl-1-{4-[2-(tetrazol-5-yl)phenyl]phenyl}methylimidazole-5-carboxylate]
